Ends that are not written are not given here. * marks the point of attachment. For = O=C*
How the values were obtained:
[1] = Gel filtration of LPS, BacSp222 and complexes; type: physicochemical
Experimental: Gel filtration was conducted on a Superdex 200 Increase 10/300 GL (Cytiva, Marlborough, MA, USA) column using an UltiMate 3000 HPLC apparatus (Thermo, Waltham, MA, USA). The separations were performed at room temperature in 50 mM NH4COOH pH 5.8 at a flow rate of 0.6 mL/min. The spectrophotometric detection was conducted at 215 and 280 nm, and before separations, the column was calibrated using tryptophan (204 Da), […] (75 kDa), aldolase (158 kDa), ferritin (440 kDa), and Blue Dextran 2000 (2 MDa). The following samples were separated: (1) 375 μg of LPS O55:B5 (IEC), (2) 375 μg of LPS O111:B4 (PE), (3) 75 μg of BacSp222, (4) 375 μg of LPS O55:B5 (IEC) + 75 μg BacSp222, and (5) 375 μg of LPS O111:B4 (PE) + 75 μg BacSp222. All above solutions were prepared in phosphate-buffered saline (PBS) without Ca^2+ and Mg^2+ (Gibco, Paisley, UK) and were preincubated before separation for 15 min at 37 °C. The fractions containing LPS O55:B5 alone and LPS-BacSp222 complex, visible as peaks eluting at 12.5–14 min and 12.5–16 min, both marked by arrows in Figure , were manually collected, freeze-dried, and subjected to sodium dodecyl sulfate polyacrylamide gel electrophoresis (SDS-PAGE) under reducing conditions. […]

TLR2/TLR6 heterodimer = conditions: cited from earlier work
Excerpt: A good example of such a multifunctional and immunomodulatory bacteriocin is the peptide BacSp222, produced by an opportunistic canine pathogen, strain 222. BacSp222 is a 50 amino acid long linear peptide encoded on a plasmid and is produced without a leader sequence, retaining a formylated N-terminal methionine.

human neutrophils = test system: human neutrophils; design: method as in number not given; conditions: ref number not given; cited from earlier work
FPR1 = test system: FPR1; design: method as in number not given; conditions: ref number not given; cited from earlier work

Substance: For-MAGLLRFLLSKGRALYNWAKSHVGKVWEWLKSGATYEQIKEWIENALGWR [BacSp222]
- BacSp222 peak at 36 min after incubation with LPS ([1]; 375 μg LPS + 75 μg BacSp222, 15 min, 37 °C, peptide referred to as "the bacteriocin"): disappears completely
- apparent molecular mass, gel filtration (peptide peak) ([1]; peak at 36 min, Superdex 200 Increase, 50 mM NH4COOH pH 5.8, 0.6 mL/min, 215 nm, room temperature): 5.5 kDa
- affinity for TLR2/TLR6 heterodimer vs synthetic ligands (TLR2/TLR6 heterodimer; kinetic studies, vs ligands based on lipoteichoic acids or lipopeptides, ref number not given): lower affinity for the TLR2/TLR6 heterodimer than synthetic ligands
- recognition by TLR2/TLR6 (TLR2/TLR6 heterodimer; ref our recent studies (ref 15)): recognized by the TLR2/TLR6 receptor heterodimer
- activation of human neutrophils (ROS, NETs) (human neutrophils): cannot activate human neutrophils to produce reactive oxygen species (ROS) and induce the production of extracellular neutrophil traps (NETs)
- activation of FPR1 (FPR1): cannot activate
